Experimental data: patent US20240252650A1, “LIPID COMPOUNDS AND LIPID NANOPARTICLE COMPOSITIONS” (SUZHOU ABOGEN BIOSCIENCES CO., LTD., priority 2021, published 2024)

Assays:
Assay type in all cases: physicochemical
[1] = Lipid nanoparticle size and polydispersity by dynamic light scattering (Malvern Zetasizer Nano ZS); conditions: LNP encapsulating hEPO mRNA; table of Example 16
Experimental: (§1) Briefly, a cationic lipid provided herein, DSPC, cholesterol, and PEG-lipid were solubilized in ethanol at a molar ratio of 50:10:38.5:1.5, and mRNA were diluted in 10 to 50 mM citrate buffer, pH=4. The LNPs were prepared at a total lipid to mRNA weight ratio of approximately 10:1 to 30:1 by mixing the ethanolic lipid solution with the aqueous mRNA solution at a volume ratio of 1:3 using a microfluidic apparatus, total flow rate ranging from 9-30 mL/min. Ethanol were thereby removed and replaced by DPBS using dialysis. Finally, the lipid nanoparticles were filtered through a 0.2 μm sterile filter.
(§2) Lipid nanoparticle size were determined by dynamic light scattering using a Malvern Zetasizer Nano ZS (Malvern UK) using a 173° backscatter detection mode. The encapsulation efficiency of lipid nanoparticles were determined using a Quant-it Ribogreen RNA quantification assay kit (Thermo Fisher Scientific, UK) according to the manufacturer's instructions.

[2] = Encapsulation efficiency of lipid nanoparticles (Quant-it Ribogreen RNA quantification assay); conditions: LNP encapsulating hEPO mRNA; table of Example 16
Experimental: as §1, §2

[3] = Apparent pKa of LNP formulations by TNS fluorescence assay; conditions: LNP cationic lipid/DSPC/cholesterol/DMG-PEG 50/10/38.5/1.5 mol %, table of Example 16
Experimental: As reported in literature, the apparent pKa of LNP formulations correlates with the delivery efficiency of LNPs for nucleic acids in vivo. The apparent pKa of each formulation was determined using an assay based on fluorescence of 2-(p-toluidino)-6-napthalene sulfonic acid (TNS). LNP formulations comprising of cationic lipid/DSPC/cholesterol/DMG-PEG (50/10/38.5/1.5 mol %) in PBS were prepared as described above. TNS was prepared as a 300 uM stock solution in distilled water. LNP formulations were diluted to 0.1 mg/ml total lipid in 3 mL of buffered solutions containing 50 mM sodium citrate, 50 mM sodium phosphate, 50 mM sodium borate, and 30 mM sodium chloride where the pH ranged from 3 to 9. An aliquot of the TNS solution was added to give a final concentration of 0.1 mg/ml and following vortex mixing fluorescence intensity was measured at room temperature in a Molecular Devices Spectramax iD3 spectrometer using excitation and mission wavelengths of 325 nm and 435 nm. A sigmoidal best fit analysis was applied to the fluorescence data and the pKa value was measured as the pH giving rise to half-maximal fluorescent intensity.

SMILES | polydispersity [1] | size (nm) [1] [nm] | Encapsulation Efficiency [2] [%] | Apparant Pka [3]
CCCCC/C=C\C/C=C\CCCCCCCC(=O)OCC(COC(=O)CCCC(COC(=O)CCCCCCC)COC(=O)CCCCCCC)COC(=O)CCN(CCO)C1CCC1 (centres unmarked) [Compound 1] | 0.047 | 77.60 | 89.48 | 5.56
CCCCC/C=C\C/C=C\CCCCCCCC(=O)OCC(COC(=O)CCOC(COC(=O)CCCCCCC)COC(=O)CCCCCCC)COC(=O)OCCCN(CC)CC (centres unmarked) [Compound 3] | 0.121 | 88.27 | 89.46 | 6.649
CCCCC/C=C\C/C=C\CCCCCCCC(=O)OCC(COC(=O)CCCCN(CCO)C1CCC1)COC(=O)CCCC(COC(=O)CCCCCCC)COC(=O)CCCCCCC (centres unmarked) [Compound 4] | 0.090 | 93.73 | 91.42 | 6.881
CCCCC/C=C\C/C=C\CCCCCCCC(=O)OCC(COC(=O)CCCC(COC(=O)CCCCCCC)COC(=O)CCCCCCC)COC(=O)OCCN(CCO)C1CCCCC1 (centres unmarked) [Compound 8] | 0.049 | 63.20 | 85.90 | 
CCCCC/C=C\C/C=C\CCCCCCCC(=O)OCC(COC(=O)CCCC(COC(=O)CCCCCCC)COC(=O)CCCCCCC)COC(=O)OCCN(CCO)C1CCC1 (centres unmarked) [Compound 12] | 0.096 | 53.68 | 81.79 | 
CCCCCCCCCCCC(=O)OCC(COC(=O)CCCC(COC(=O)CCCCCCC)COC(=O)CCCCCCC)COC(=O)CCN(CCO)C1CCC1 (centres unmarked) [Compound 15] | 0.043 | 90.47 | 93.04 | 
CCCCC/C=C\C/C=C\CCCCCCCC(=O)OCC(COC(=O)CCCC(COC(=O)CCCCCCC)COC(=O)CCCCCCC)COC(=O)OCCN(CCO)C1CCCC1 (centres unmarked) [Compound 33] | 0.053 | 71.21 | 83.76 | 
CCCCC/C=C\C/C=C\CCCCCCCC(=O)OCC(COC(=O)CCCC(COC(=O)CCCCCCC)COC(=O)CCCCCCC)COC(=O)OCCCN(CCO)C1CCC1 (centres unmarked) [Compound 34] | 0.049 | 82.63 | 89.00 | 6.307
CCCCCCCCCCCCCCCC(=O)OCC(COC(=O)CCCCN(CCO)C1CCC1)COC(=O)CCCC(COC(=O)CCCCCCC)COC(=O)CCCCCCC (centres unmarked) [Compound 41] |  |  |  | 6.895
CCCCC/C=C\C/C=C\CCCCCCCC(=O)OCC(COC(=O)CCCCCCN(CCO)C1CCC1)COC(=O)CCCC(COC(=O)CCCCCCC)COC(=O)CCCCCCC (centres unmarked) [Compound 42] | 0.077 | 96.94 | 92.04 | 6.879
CCCCC/C=C\C/C=C\CCCCCCCC(=O)OCC(COC(=O)CCCCCCCN(CCO)C1CCC1)COC(=O)CCCC(COC(=O)CCCCCCC)COC(=O)CCCCCCC (centres unmarked) [Compound 43] | 0.04 | 95.19 | 93.46 | 6.766
CCCCCCCC(=O)OCC(CCCC(=O)OCC(COC(=O)CCCCCCC)COC(=O)CCCCCCCN(CCO)C1CCC1)COC(=O)CCCCCCC (centres unmarked) [Compound 44] |  |  |  | 6.812
CCCCCCCCC(=O)OCC(COC(=O)CCCCCN(CCO)C1CCC1)COC(=O)CCCC(COC(=O)CCCCCCC)COC(=O)CCCCCCC (centres unmarked) [Compound 45] | 0.067 | 144.2 | 90.08 | 6.965
CCCCCCCCCC(=O)OCC(COC(=O)CCCCN(CCO)C1CCC1)COC(=O)CCCC(COC(=O)CCCCCCC)COC(=O)CCCCCCC (centres unmarked) [Compound 47] |  |  |  | 7.217
CCCCCCCCCCCCCCCCCC(=O)OCC(COC(=O)CCCCCN(CCO)C1CCC1)COC(=O)CCCC(COC(=O)CCCCC)COC(=O)CCCCCCC (centres unmarked) [Compound 61] |  |  |  | 7.019
CCCCCCCCCCCCCCCCCC(=O)OCC(COC(=O)CCCC(COC(=O)CCCCCCC)COC(=O)CCCCCCC)COC(=O)OCCCN(CCO)C1CCCCC1 (centres unmarked) [Compound 65] |  |  |  | 6.111
CCCCCCCCC(=O)OCC(COC(=O)CCCC(COC(=O)CCCCCCC)COC(=O)CCCCCCC)COC(=O)OCCCN(CCO)C1CCC1 (centres unmarked) [Compound 67] |  |  |  | 6.349
CCCCCCCCCCCCCCCCCC(=O)OCC(COC(=O)CCCCN(CCO)C1CCC1)COC(=O)CCCC(COC(=O)CCCCCCC)COC(=O)CCCCCCC (centres unmarked) [Compound 72] |  |  |  | 7.076
CCCCCCCCCCCCCCCCCC(=O)OCC(COC(=O)CCCCN(CCO)C1CCCCCC1)COC(=O)CCCC(COC(=O)CCCCCCC)COC(=O)CCCCCCC (centres unmarked) [Compound 75] |  |  |  | 6.547
CCCCCCCCCCCCCCCCCC(=O)OCC(COC(=O)CCCCN(CCC)CCO)COC(=O)CCCC(COC(=O)CCCCCCC)COC(=O)CCCCCCC (centres unmarked) [Compound 83] |  |  |  | 7.232
C=CCN(CCO)CCCOC(=O)OCC(COC(=O)CCCCCCC/C=C\C/C=C\CCCCC)COC(=O)CCCC(COC(=O)CCCCCCC)COC(=O)CCCCCCC (centres unmarked) [Compound 88] |  |  |  | 5.905
C/C=C/CN(CCO)CCCOC(=O)OCC(COC(=O)CCCCCCC/C=C\C/C=C\CCCCC)COC(=O)CCCC(COC(=O)CCCCCCC)COC(=O)CCCCCCC (centres unmarked) [Compound 94] |  |  |  | 6.192
CCCCCCCCCCCCCCCCCC(=O)OCC(COC(=O)CCCCN(CCO)CC(C)C)COC(=O)CCCC(COC(=O)CCCCCCC)COC(=O)CCCCCCC (centres unmarked) [Compound 97] |  |  |  | 6.006

The remaining lines, values ahead:

polydispersity [1] | size (nm) [1] [nm] | Encapsulation Efficiency [2] [%] | Apparant Pka [3] | SMILES
0.031 | 84.24 | 78.25 | 6.915 | CCCCCCCCCCCCC(=O)OCC(COC(=O)CCCCN(CCO)C1CCC1)COC(=O)CCCC(COC(=O)CCCCCCC)COC(=O)CCCCCCC (centres unmarked) [Compound 18]
0.069 | 158.9 | 89.87 | 7.088 | CCCCCCCCC(=O)OCC(COC(=O)CCCCCCCN(CCO)C1CCC1)COC(=O)CCCC(COC(=O)CCCCCCC)COC(=O)CCCCCCC (centres unmarked) [Compound 46]
0.087 | 108.4 | 93.21 | 7.229 | CCCCCCCCCCC(=O)OCC(COC(=O)CCCCN(CCO)C1CCC1)COC(=O)CCCC(COC(=O)CCCCCCC)COC(=O)CCCCCCC (centres unmarked) [Compound 48]
0.086 | 100.8 | 89.09 | 7.287 | CCCCCCCCCCC(=O)OCC(COC(=O)CCCCCN(CCO)C1CCC1)COC(=O)CCCC(COC(=O)CCCCCCC)COC(=O)CCCCCCC (centres unmarked) [Compound 49]
0.158 | 89.62 | 91.68 | 7.175 | CCCCCCCCCCC(=O)OCC(COC(=O)CCCCCCN(CCO)C1CCC1)COC(=O)CCCC(COC(=O)CCCCCCC)COC(=O)CCCCCCC (centres unmarked) [Compound 50]
 |  |  | 7.288 | CCCCCCCCCCCC(=O)OCC(COC(=O)CCCCCN(CCO)C1CCC1)COC(=O)CCCC(COC(=O)CCCCCCC)COC(=O)CCCCCCC (centres unmarked) [Compound 51]
 |  |  | 7.041 | CCCCCCCCCCCC(=O)OCC(COC(=O)CCCCCCCN(CCO)C1CCC1)COC(=O)CCCC(COC(=O)CCCCCCC)COC(=O)CCCCCCC (centres unmarked) [Compound 52]
0.079 | 117 | 84.36 | 7.016 | CCCCCCCCC(=O)OCC(COC(=O)CCCCCCN(CCO)C1CCC1)COC(=O)CCCC(COC(=O)CCCCCCC)COC(=O)CCCCCCC (centres unmarked) [Compound 57]
0.129 | 104.3 | 77.87 | 6.97 | CCCCCCCCCC(=O)OCC(COC(=O)CCCCCN(CCO)C1CCC1)COC(=O)CCCC(COC(=O)CCCCCCC)COC(=O)CCCCCCC (centres unmarked) [Compound 58]
 |  |  | 6.999 | CCCCCCCCCCCCC(=O)OCC(COC(=O)CCCCCN(CCO)C1CCC1)COC(=O)CCCC(COC(=O)CCCCCCC)COC(=O)CCCCCCC (centres unmarked) [Compound 63]
0.196 | 105.4 | 87.35 | 6.837 | CCCCCCCCCCCCC(=O)OCC(COC(=O)CCCCCCN(CCO)C1CCC1)COC(=O)CCCC(COC(=O)CCCCCCC)COC(=O)CCCCCCC (centres unmarked) [Compound 64]
 |  |  | 6.887 | CCCCCCCCCC(=O)OCC(COC(=O)CCCCCCN(CCO)C1CCC1)COC(=O)CCCC(COC(=O)CCCCCCC)COC(=O)CCCCCCC (centres unmarked) [Compound 79]
 |  |  | 6.858 | CCCCCCCCCC(=O)OCC(COC(=O)CCCCCCCN(CCO)C1CCC1)COC(=O)CCCC(COC(=O)CCCCCCC)COC(=O)CCCCCCC (centres unmarked) [Compound 80]
